# Results: patent publication US20180355369A1, “Method for Increasing Plant Stress Tolerance and Seed Dormancy” (The Australian National University, priority 2015, published 2018)
# *1 amine or outer side, *2 acyl side, *3 side chain or, on linkers, in order; H or OH if unused. Where a SMILES comes first, the peptide text is derived from it. Bridges are numbered along the chain shown (N, C = ends). Roman numbers before positions name the chains, in order. [ ]: non-standard residue; d: D form. Actinocin(9to1) = Cc1c2oc3c(C)ccc(C(=O)[*:1])c3nc-2c(C(=O)[*:2])c(N)c1=O; NMeV = CN[C@H](C(=O)O)C(C)C; Sar = CNCC(=O)O
# T1: AtSAL1 (Arabidopsis thaliana, UniProt Q42546)
# T1 construct: Ubiquitin fusion partner (pHUE vector) (cleaved yes); made in house; host or cells: Escherichia coli BL21 DE3
# T1 sequence (Q42546 1-353): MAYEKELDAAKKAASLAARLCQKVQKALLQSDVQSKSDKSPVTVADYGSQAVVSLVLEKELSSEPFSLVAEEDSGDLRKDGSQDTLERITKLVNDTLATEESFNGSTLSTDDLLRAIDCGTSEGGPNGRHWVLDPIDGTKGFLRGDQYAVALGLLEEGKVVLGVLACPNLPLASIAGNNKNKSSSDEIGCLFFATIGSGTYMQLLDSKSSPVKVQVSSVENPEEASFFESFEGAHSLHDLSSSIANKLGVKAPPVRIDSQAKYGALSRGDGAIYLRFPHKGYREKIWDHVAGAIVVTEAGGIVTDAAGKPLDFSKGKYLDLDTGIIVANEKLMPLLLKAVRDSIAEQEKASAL
# B1: Arabidopsis thaliana SAL1, mature recombinant protein (transit peptide excluded) (protein)
# chain: T1 sequence (Q42546 1-353)
# What was measured:
# stomata = test: Stomatal aperture in epidermal leaf peels; assay type: cell-based, Arabidopsis; conditions: for stomatal closure response to exogenous PAP with co-treatment: LiCl (SAL1 inhibitor) or ATP (PAP antiporter co-substrate) with PAP; for effect of inhibitor on ABA-induced stomatal closure: epidermal peels treated with ABA plus inhibitor
# Description: (§1) Five- to six-week-old plants were used to prepare epidermal peels. ABA at a concentration of 20 μM in water was root fed to hydroponically grown plants or sprayed onto leaves using a Studio Series IS-875 with a 0.5 mm nozzle opening (Iwata). We investigated if PAP accumulation in the double mutants could affect the production of NO during ABA-induced stomatal closure by treating epidermal peels with the inhibitor of NO synthase N(G)-methyl-L-arginine (NMA). For the investigation of the effect of different chemicals on stomatal closure, 20 μM ABA (Sigma-Aldrich), 100 mM LiCl, or 1 mM ATP, 1 mM or 100 μM PAP (Sigma-Aldrich) alone or in different combinations were prepared in infiltration buffer (1 mM PIPES KOH pH 6.0, 1 mM Sodium citrate, 1 mM KCl, 15 mM Sucrose) modified from a cordycepin infiltration buffer.
# Measurements of stomatal aperture were performed with epidermal strips taken from five- to six-week-old plants. Fully developed leaves were cut and placed with their adaxial side onto cello tape. The vein was removed by razor blade and the abaxial epidermis was subsequently peeled off by using another strip of cello tape. To promote stomatal opening, the peels left adhered to the Scotch (810D Magic Tape, ¾ inch, 3M) were placed in petri dishes filled with stomatal opening solution (10 mM MES, 5 mM KCl, 50 μM CaCl2, pH 6.5) and incubated for 2 h at 22° C. under 150-200 μmol photons m^−2 s^−1 of light. Once the stomata were fully open, strips were maintained in the opening buffer or treated with various compounds according to the experiment. After treatment, photographs of stomata were taken using Leica microscope (Leica Microsystems, Wetzlar, Germany) at 20×. Stomatal aperture was measured using the image-processing software ImageJ. For stomatal aperture measurements, the ratio of stomatal pore width and length was used instead of width as this normalizes the pores of stomata of different size. Small stomata with a stomatal pore length of less than 7.5 μm were discarded. For each data point, 90 stomata were measured in 3 independent experiments. In each experiment, 10 stomata were measured in 3 epidermal strips per sample per treatment.
# Measurements of stomatal closure in response to ABA, PAP, cordycepin and ATP treatments were performed on epidermal strips from Arabidopsis and barley plants grown under specific conditions. Plants were grown under high humidity (approximately 80% RH) and 12 h/12 h and 22/20° C. light/dark cycle in a growth chamber. Epidermal peels of newly expanding true leaves of three to four-week old plants. Stomatal apertures were measured in epidermal peels of newly expanded leaves. Peels were taken from the abaxial leaf surface and were fixed to the glass bottom of the experimental chamber after coating the chamber surface with an optically clear and pressure-sensitive silicon adhesive (Factor II, Tucson, USA). The attached epidermal peel is subsequently immersed in an opening buffer (OB: 50 mM KCl, 5 mM MES titrated to pH 6.1 with NaOH) and incubated, at plant growth conditions, for approximately 2 h. Stomatal images were taken using a bright-field microscope capable of 400× magnification for 10 minutes in OB and subsequently in Measuring Buffer [MB: 10 mM KCl, 5 mM MES titrated to pH 6.1 with Ca(OH)2] or PAP or cordycepin or ABA (dissolved in MB) for another 50 min. In total this was a 60 minute time course and images of the epidermal section were taken every 5 minutes using NIS Elements software (Nikon, Japan). Stomata aperture width and length were measured using Image J (NIH, USA). The pore area of each stomate was calculated using these values under the assumption that the area of a stomatal pore was that of an ellipse. Data are expressed as percentage over the control.
# guard cells = test: ROS accumulation in guard cells of epidermal peels; assay type: cell-based, Arabidopsis; conditions: wild type, ost1-2 and ost1-2 alx8
# Description: The ABA- and PAP-induced accumulation of ROS in guard cells of epidermal peels was measured using dichlorofluorescein diacetate (H2DCFDA, Invitrogen). After 2 h of incubation in OB, the epidermal peel was incubated with 20 μM dye dissolved in DMSO and MB for 30 min, and then rinsed with MB three times. Epidermal peels were incubated in ABA or PAP dissolved in MB (or MB only as a negative control) for 10 min. Fluorescence images were taken using a Leica inverted confocal microscope controlled by the LAS AF software (Leica Microsystems, Germany). We used the 496-nm excitation line of an argon multiline laser. H2DCFDA fluorescence emission was detected at 505 to 525 nm. Chloroplast fluorescence was detected at 680 to 700 nm in order to separate the autofluorescence of chlorophyll in guard cells. Images were quantified with Image J software (National Institutes of Health, USA). The background signal was measured from the empty region of the similar size and subtracted from the stomata signal to obtain corrected total stomatal fluorescence values. Each stomate was considered to represent a single biological unit and thus fluorescence values were averaged across all stomata at each time point for each treatment. At least three biological replicates were measured for each treatment.
# [1] = PAP quantification in leaves after exogenous ABA; assay type: in vivo, Arabidopsis; conditions: wild type leaves
# Description: as §1
# (§2) Total adenosines were extracted with 0.1 M HCl, derivatization with chloroacetaldehyde and quantified fluorometrically after HPLC fractionation. 3′-phosphoadenosine 5′-phosphate (PAP) quantification was performed by integrating the HPLC peak area and converting these to pmol units using standard curves of 1, 5 and 10 pmol standard.
# [2] = PAP accumulation in leaves after petiole feeding; assay type: in vivo, Arabidopsis; conditions: petiole feeding of PAP for 1 h, alone or co-applied with LiCl or ATP
# Description: as §1, §2
# [3] = Accumulation of PAP analogues in leaves post-spraying; assay type: in vivo, Arabidopsis thaliana; conditions: foliar spray 100 mM, soil-grown wild type plants; 1 hr, 4 hr, 1 d, 4 d
# Description: Five week-old soil-grown wild type Arabidopsis plants were sprayed using a Studio Series IS-875 with a 0.5 mm nozzle opening (Iwata). Each plant was sprayed with approximately 100 μl of different PAP analogues (100 mM) or mock buffer (1% DMSO) and then returned to standard growth conditions. 100 mg leaf tissue was harvested and snap-frozen in liquid nitrogen at various timepoints post-spraying (1 hr, 4 hr, 1 d and 4 d). Total adenosines were extracted, derivatized and quantified by HPLC. Identification and quantification of Analogues 8, 12 and 13 were performed by comparison to authentic standards. Triplicate treatments were carried out, and data presented as mean+/−standard deviation.
# AtSAL1 = target: T1, AtSAL1; test: Inhibition of in vitro AtSAL1 activity against PAP; assay type: biochemical; conditions: against 50 μM PAP, Analogue 12 at 0, 3.35, 13.4 or 50 μM
# Description: For estimation of inhibition of AtSAL1 activity by PAP analogue 12, 200 ng of purified recombinant SAL1 protein was incubated in 75 μl 2×activity buffer (200 mM Tris-MES pH 7.5, 2 mM Mg acetate) and Analogue 12 at a concentration of 0, 3.35, 13.4 or 50 μM for 1 hour at room temperature. The samples were then placed on ice, and 75 μl PAP added for a final reaction condition of 100 mM Tris-MES pH 7.5, 1 mM Mg acetate and 50 μM PAP. The reaction was allowed to proceed at 25 degrees Celsius for 5 minutes, then stopped by flash freezing in liquid nitrogen. The AMP formed from degradation of PAP by SAL1 was quantified by derivatization and resolving on HPLC. Duplicate treatments were carried out, and data presented as mean+/−standard error.
molecule,measurement,setting,value
CC1=CC(=O)CC(C)(C)C1(O)/C=C/C(C)=C\C(=O)O (stereo not shown) [ABA],time to ABA-induced stomatal closure,"stomata; epidermal peels, FIGS. 5B and 5D",< 10 min
same,ROS burst in guard cells,guard cells,ROS burst known to stimulate stomatal closure was observed in response to ABA treatment in wild type
same,PAP accumulation stimulated by exogenous ABA,[1],stimulates PAP accumulation by four fold
Nc1ncnc2c1ncn2[C@@H]1O[C@H](COP(=O)(O)OP(=O)(O)OP(=O)(O)O)[C@@H](O)[C@H]1O [ATP],stomatal closure response to exogenous PAP with co-treatment,stomata,"a stronger, cumulative response was achieved"
same,accumulation of PAP in leaves,[2],significantly enhanced
"CCNC(=O)C1OC(n2cnc3c(N)ncnc32)C(O)C1O (stereo not shown) [Analogue 8, 5-(6-amino-9H-purin-9-yl)-N-ethyl-3,4-dihydroxytetrahydro-2-furancarboxamide]",accumulation of PAP analogue in leaf tissue after spraying,[3],showed rapid accumulation of PAP analogues to levels comparable with those for PAP found in leaf tissue in vivo
"Nc1ncnc2c1nc(S)n2C1OC(CO)C(O)C1O (stereo not shown) [Analogue 12, 2-(6-amino-8-mercapto-9H-purin-9-yl)-5-(hydroxymethyl) tetrahydro-3,4-furandiol]",inhibition of in vitro SAL1 activity,AtSAL1,inhibition of in vitro SAL1 activity
same,inhibition of in vitro SAL1 activity,AtSAL1; listed as analogue 12,found to inhibit in vitro SAL1 activity
same,accumulation of PAP analogue in leaf tissue after spraying,[3],showed rapid accumulation of PAP analogues to levels comparable with those for PAP found in leaf tissue in vivo
"COC(=O)C1OC(n2cnc3c(N)ncnc32)C(O)C1O (stereo not shown) [Analogue 13, methyl 5-(6-amino-9H-purin-9-yl)-3,4-dihydroxytetrahydro-2-furancarboxylate]",accumulation of PAP analogue in leaf tissue after spraying,[3],showed rapid accumulation of PAP analogues to levels comparable with those for PAP found in leaf tissue in vivo
"Nc1ncnc2c1ncn2[C@@H]1O[C@H](CO)C[C@H]1O [Analogue 16, 3′-deoxyadenosine]",stomatal closure in leaf peels,"stomata; leaf peels of wild type plants, 1 hr, PAP 100 μM, ABA 100 μM, cordycepin 10 μM",elicited rapid stomatal closure similar to the PAP response
[Cl-].[Li+] [LiCl],stomatal closure response to exogenous PAP with co-treatment,stomata,"a stronger, cumulative response was achieved"
same,accumulation of PAP in leaves,[2],significantly enhanced
"CNC(=N)NCCC[C@H](N)C(=O)O [NMA, N(G)-methyl-L-arginine]",effect of inhibitor on ABA-induced stomatal closure,stomata,reduced ABA-induced stomatal closure in Col-0Ler
"Cc1c2oc3c(C)ccc(C(=O)N[C@@H]4C(=O)N[C@H](C(C)C)C(=O)N5CCC[C@H]5C(=O)N(C)CC(=O)N(C)[C@@H](C(C)C)C(=O)O[C@@H]4C)c3nc-2c(C(=O)N[C@@H]2C(=O)N[C@H](C(C)C)C(=O)N3CCC[C@H]3C(=O)N(C)CC(=O)N(C)[C@@H](C(C)C)C(=O)O[C@@H]2C)c(N)c1=O [actinomycin D] (I: T[dV]P[Sar][NMeV] / II: T[dV]P[Sar][NMeV]; ester I:1-I:C, II:1-II:C; linker I:N-II:N via Actinocin(9to1))",effect of inhibitor on ABA-induced stomatal closure,stomata,suppressed ABA-mediated closure to a lesser extent in ost1-2 alx8 than in the wild type
B1,kcat (enzyme activity against PAP),,up to 6-fold decrease in kcat for the oxidized dimeric rSAL1
